# Data reported in patent publication US20240309117A1, “APTAMER-PEPTIDE CONJUGATES” (CITY UNIVERSITY OF HONG KONG, priority 2023, published 2024).
# [L-RNA-N] = L-ribonucleotide (mirror-image RNA) unit (N: the base)
# Key:
# hTERC rG4 WT [1] = test: Dual-luciferase reporter assay, hTERC rG4 WT, HEK 293T cells; type: cell-based, human
# Experimental: (§1) The DNA sequences encoding hTERC rG4 WT, hTERC rG4 Mut, NRAS rG4 WT, NRAS rG4 Mut, APP rG4 WT, and APP rG4 Mut (Table 1) were respectively introduced into the 5′UTR of the renilla luciferase gene in the psiCHECK-2 vector. 2×10^4 HeLa cells were seeded on 96-well black-wall plates. In sequential addition assay, 10 ng WT and Mut plasmids were transfected to cells by LIPOFECTAMINE® 2000 separately. Subsequently, Tamra_Ahx_R8, Tamra_Ahx_R8_L-Apt.4-1c, and L-Apt.4-1c (0, 100 nM, 200 nM) were separately added to cells after being washed with phosphate buffered saline (PBS) at 4 hours post-transfection and incubated for 48 hours. In co-transfection assay, 10 ng WT or Mut plasmid was co-transfected with Tamra_Ahx_R8, Tamra_Ahx_R8_L-Apt.4-1c, and L-Apt.4-1c (0, 100 nM, 200 nM) separately to cells by LIPOFECTAMINE® 2000 and incubated for 48 hours. Luciferase activity was determined by microplate reader. The renilla activity was normalized to firefly activity for data analysis.
# hTERC rG4 WT [2] = test: Dual-luciferase reporter gene assay, hTERC rG4 WT, HeLa cells; type: cell-based, human; conditions: 200 nM, 48 hours
# Experimental: as §1
substance,measurement,setting,value
"L-Apt.4-1c: the L-RNA aptamer of SEQ ID NO: 1 (GCCCUAAAGGUGGUGGUGGGAGGGC), non-conjugated control (all [L-RNA-N], backbone not given here)","Effect on normalized luciferase activity, hTERC rG4 WT construct",hTERC rG4 WT [1],cannot regulate luciferase activity
same,"Effect on normalized luciferase activity, hTERC rG4 WT construct","hTERC rG4 WT [2]; co-transfection with plasmid by LIPOFECTAMINE 2000, 0, 100 nM",only functioned well in co-transfection method
same,"Effect on normalized luciferase activity, hTERC rG4 WT construct","hTERC rG4 WT [2]; sequential addition, absence of transfection reagent, 0, 100 nM",neither Tamra_Ahx_R8 peptide nor L-Apt.4-1c modulated luciferase activity
